Species: Rattus norvegicus
Assay: Open TG-GATES - Regimen: Single
Type: toxicity, organism-based, Sprague-Dawley
Set-up: regimen Single, gender Male, age 6 weeks
Conditions: in vivo, po, 30 mg/kg, route gavage, dose level Middle; for APTT / Bas / Eos / Fbg / Hb / Ht / Lym / MCH / MCHC / MCV / Mono / Neu / PT / Plat / RBC / Ret / WBC: tissue Blood; for KIDNEY_L / KIDNEY_R / KIDNEY_TOTAL: tissue Kidney; for LIVER: tissue Liver; for A/G / ALP / ALT / AST / BUN / CRE / Ca / Cl / DBIL / GLC / IP / K / LDH / Na / PL / RALB / TBIL / TC / TG / TP / gamma-GTP: tissue Plasma

SMILES: CCCc1cc(=O)[nH]c(=S)[nH]1 [PROPYLTHIOURACIL]
- TERMINAL_BW (3 h): 179.8 g
- APTT (3 h): 16 s
- Bas (3 h): 0%
- Eos (3 h): 1%
- Fbg (3 h): 211.4 mg/dL
- Hb (3 h): 13.2 g/dL
- Ht (3 h): 40%
- Lym (3 h): 80.2%
- MCH (3 h): 22.2 pg
- MCHC (3 h): 33%
- MCV (3 h): 67.2 fL
- Mono (3 h): 5.6%
- Neu (3 h): 13.6%
- PT (3 h): 12.8 s
- Plat (3 h): 100.4 x10_4/uL
- RBC (3 h): 595.4 x10_4/ul
- Ret (3 h): 10.1%
- WBC (3 h): 101.6 x10_2/uL
- KIDNEY_L (3 h): 0.8 g
- KIDNEY_R (3 h): 0.8 g
- KIDNEY_TOTAL (3 h): 1.7 g
- LIVER (3 h): 8.4 g
- A/G (3 h): 2
- ALP (3 h): 1017.6 IU/L
- ALT (3 h): 32.6 IU/L
- AST (3 h): 65.4 IU/L
- BUN (3 h): 12 mg/dL
- CRE (3 h): 0.4 mg/dL
- Ca (3 h): 11.2 mg/dL
- Cl (3 h): 105.2 meq/L
- DBIL (3 h): 0.042 mg/dL
- GLC (3 h): 193.6 mg/dL
- IP (3 h): 10.8 mg/dL
- K (3 h): 4.4 meq/L
- LDH (3 h): 86.6 IU/L
- Na (3 h): 138.2 meq/L
- PL (3 h): 135 mg/dL
- RALB (3 h): 3.6 g/dL
- TBIL (3 h): 0.3 mg/dL
- TC (3 h): 77.2 mg/dL
- TG (3 h): 30.6 mg/dL
- TP (3 h): 5.5 g/dL
- gamma-GTP (3 h): 1.2 IU/L
- TERMINAL_BW (6 h): 177.6 g
- APTT (6 h): 16.2 s
- Bas (6 h): 0%
- Eos (6 h): 1%
- Fbg (6 h): 208.8 mg/dL
- Hb (6 h): 13.2 g/dL
- Ht (6 h): 39.3%
- Lym (6 h): 77.2%
- MCH (6 h): 22.2 pg
- MCHC (6 h): 33.5%
- MCV (6 h): 66.3 fL
- Mono (6 h): 6.8%
- Neu (6 h): 15.2%
- PT (6 h): 12.7 s
- Plat (6 h): 107.3 x10_4/uL
- RBC (6 h): 593.4 x10_4/ul
- Ret (6 h): 10.5%
- WBC (6 h): 83.3 x10_2/uL
- KIDNEY_L (6 h): 0.8 g
- KIDNEY_R (6 h): 0.9 g
- KIDNEY_TOTAL (6 h): 1.7 g
- LIVER (6 h): 8.1 g
- A/G (6 h): 2
- ALP (6 h): 892.6 IU/L
- ALT (6 h): 31.8 IU/L
- AST (6 h): 63.8 IU/L
- BUN (6 h): 12.8 mg/dL
- CRE (6 h): 0.5 mg/dL
- Ca (6 h): 11.2 mg/dL
- Cl (6 h): 105 meq/L
- DBIL (6 h): 0.062 mg/dL
- GLC (6 h): 182 mg/dL
- IP (6 h): 10.8 mg/dL
- K (6 h): 4.9 meq/L
- LDH (6 h): 89.6 IU/L
- Na (6 h): 138.4 meq/L
- PL (6 h): 127.4 mg/dL
- RALB (6 h): 3.7 g/dL
- TBIL (6 h): 0.3 mg/dL
- TC (6 h): 70.4 mg/dL
- TG (6 h): 36.4 mg/dL
- TP (6 h): 5.5 g/dL
- gamma-GTP (6 h): 1.8 IU/L
- TERMINAL_BW (9 h): 178.7 g
- APTT (9 h): 15.7 s
- Bas (9 h): 0%
- Eos (9 h): 1.6%
- Fbg (9 h): 216 mg/dL
- Hb (9 h): 13.3 g/dL
- Ht (9 h): 40%
- Lym (9 h): 73.4%
- MCH (9 h): 22.1 pg
- MCHC (9 h): 33.2%
- MCV (9 h): 66.6 fL
- Mono (9 h): 8.2%
- Neu (9 h): 17%
- PT (9 h): 12.7 s
- Plat (9 h): 102.7 x10_4/uL
- RBC (9 h): 601.2 x10_4/ul
- Ret (9 h): 9.8%
- WBC (9 h): 64.5 x10_2/uL
- KIDNEY_L (9 h): 0.9 g
- KIDNEY_R (9 h): 0.9 g
- KIDNEY_TOTAL (9 h): 1.7 g
- LIVER (9 h): 7.5 g
- A/G (9 h): 1.9
- ALP (9 h): 878.2 IU/L
- ALT (9 h): 30.4 IU/L
- AST (9 h): 61.6 IU/L
- BUN (9 h): 12.2 mg/dL
- CRE (9 h): 0.5 mg/dL
- Ca (9 h): 10.5 mg/dL
- Cl (9 h): 106.4 meq/L
- DBIL (9 h): 0 mg/dL
- GLC (9 h): 194.2 mg/dL
- IP (9 h): 10.6 mg/dL
- K (9 h): 4.7 meq/L
- LDH (9 h): 92.4 IU/L
- Na (9 h): 138.8 meq/L
- PL (9 h): 131 mg/dL
- RALB (9 h): 3.6 g/dL
- TBIL (9 h): 0.5 mg/dL
- TC (9 h): 77.6 mg/dL
- TG (9 h): 33.8 mg/dL
- TP (9 h): 5.5 g/dL
- gamma-GTP (9 h): 1 IU/L
- TERMINAL_BW (24 h): 189 g
- APTT (24 h): 16 s
- Bas (24 h): 0%
- Eos (24 h): 1%
- Fbg (24 h): 206.6 mg/dL
- Hb (24 h): 13.6 g/dL
- Ht (24 h): 40.7%
- Lym (24 h): 78%
- MCH (24 h): 21.9 pg
- MCHC (24 h): 33.5%
- MCV (24 h): 65.2 fL
- Mono (24 h): 9%
- Neu (24 h): 12.4%
- PT (24 h): 12.3 s
- Plat (24 h): 101.4 x10_4/uL
- RBC (24 h): 623.4 x10_4/ul
- Ret (24 h): 9.1%
- WBC (24 h): 101.7 x10_2/uL
- KIDNEY_L (24 h): 0.9 g
- KIDNEY_R (24 h): 0.9 g
- KIDNEY_TOTAL (24 h): 1.7 g
- LIVER (24 h): 9.5 g
- A/G (24 h): 2
- ALP (24 h): 911.4 IU/L
- ALT (24 h): 40.8 IU/L
- AST (24 h): 65 IU/L
- BUN (24 h): 16.8 mg/dL
- CRE (24 h): 0.5 mg/dL
- Ca (24 h): 11 mg/dL
- Cl (24 h): 106.8 meq/L
- DBIL (24 h): 0.018 mg/dL
- GLC (24 h): 185.4 mg/dL
- IP (24 h): 7.1 mg/dL
- K (24 h): 5 meq/L
- LDH (24 h): 90.6 IU/L
- Na (24 h): 139.8 meq/L
- PL (24 h): 157.4 mg/dL
- RALB (24 h): 3.8 g/dL
- TBIL (24 h): 0.3 mg/dL
- TC (24 h): 85.2 mg/dL
- TG (24 h): 112 mg/dL
- TP (24 h): 5.7 g/dL
- gamma-GTP (24 h): 1.2 IU/L
